Reference: patent publication US9744148B2, “Kallikrein 7 inhibitors” (SIXERA PHARMA AB, priority 2014, dated 2017)
pIC50: −log10 of the molar value.

The compounds below were run against Active human KLK7 (SCCE) (Homo sapiens (Human), UniProt P49862) (assay: KLK7 Inhibitor Test). Details: substrate MeO-Suc-Arg-Pro-Tyr-pNA, pH 7.2, 37° C., absorbance at 405 nm.
Assay type: biochemical
Method: KLK7 Inhibitor Test Substrate:(MeO-Suc-[…]), acetate salt, Peptide international, lot #906841, previously named S-2586 Enzyme: […] Buffer: 10 mM NaPhospate, 0.5 M NaCl, pH 7.2 […] 10 μl of substance in DMSO was added to wells giving final concentrations of 20 μ[…], and 0.15625 μM. 40 μl of active KLK7 (SCCE) (diluted to 12.5 μg/ml in activity buffer) was added all wells except blank to which activity buffer was added. […] The mean value V of each sample was calculated (n=2 for the substances and n=4 for the control). From the values of V the % of total activity was calculated as (Vinhibitor/Vcontrol (no inhibitor))×100. Plotting and calculation was then done in originPro. % of total activity (y) was plotted vs. log [inhibitor] (log x) and a function of dose response y=A1+(A2-A1)/(1+10^((LOG(x0)-x)*p)) where A1=Bottom platue, A2=Top platue, x0=EC50 and p=Hill slope was fitted to the curve. […] The IC50 values were used to identify KLK7 inhibitors according to the invention.

Active human KLK7 (SCCE), sequence (P49862 30-253): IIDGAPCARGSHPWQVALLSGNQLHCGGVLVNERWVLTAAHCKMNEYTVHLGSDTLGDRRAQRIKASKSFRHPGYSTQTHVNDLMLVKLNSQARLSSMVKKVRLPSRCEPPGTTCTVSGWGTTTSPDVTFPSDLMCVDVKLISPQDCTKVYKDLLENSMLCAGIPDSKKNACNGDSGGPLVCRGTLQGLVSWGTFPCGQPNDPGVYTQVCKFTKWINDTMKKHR

How did the pIC50 turn out when `Cc1cc(NC(=O)C(C)OC(=O)Cc2ccc(Cl)cc2)no1` (stereo not shown) [Compound 1, [1-methyl-2-[(5-methylisoxazol-3-yl)amino]-2-oxo-ethyl] 2-(4-chlorophenyl)acetate] was run?
Its pIC50 is 7.41.

With `CCC(OC(=O)C(c1ccccc1)c1ccccc1)C(=O)Nc1ccc(F)cc1` (stereo not shown) [Compound 44, 1-[(4-fluorophenyl)carbamoyl]propyl 2,2-diphenylacetate] as the compound, how does the pIC50 read?
Its pIC50 is 6.19.

With `CCC(OC(=O)Cc1ccc(Cl)c(Cl)c1)C(=O)Nc1cc(C)on1` (stereo not shown) [Compound 39, 1-[(5-methylisoxazol-3-yl)carbamoyl]propyl 2-(3,4-dichlorophenyl)acetate] as the compound, how does the pIC50 read?
The pIC50 was 6.32.

`COc1ccc(CC(=O)OC(C)C(=O)Nc2ccc(OC)cc2)cc1` (stereo not shown) [Compound 15, [2-(4-methoxyanilino)-1-methyl-2-oxo-ethyl] 2-(4-methoxyphenyl)acetate] was tested. Which pIC50 did it give?
Its pIC50 is 6.74.

How did the pIC50 turn out when `CCC(OC(=O)Cc1ccc(Cl)cc1)C(=O)Nc1ccc(F)cc1` (stereo not shown) [Compound 8, 1-[(4-fluorophenyl)carbamoyl]propyl 2-(4-chlorophenyl)acetate] was run?
Its pIC50 is 6.85.

How did the pIC50 turn out when `CCC(OC(=O)CCC1CCCC1)C(=O)Nc1ccc(OC)cc1` (stereo not shown) [Compound 11, 1-[(4-methoxyphenyl)carbamoyl]propyl 3-cyclopentylpropanoate] was run?
The pIC50 was 6.82.

`O=C(Cc1ccc(Cl)cc1)OC(C(=O)Nc1ccc(F)cc1)c1ccccc1` (stereo not shown) [Compound 29] was tested. Which pIC50 did it give?
Its pIC50 is 6.46.

`O=C(COC(=O)C(c1ccccc1)c1ccccc1)Nc1ccc(F)cc1` [Compound 88] was tested. Which pIC50 did it give?
The pIC50 was 5.07.

`CCC(OC(=O)Cc1ccc2c(c1)OCO2)C(=O)Nc1cc(C)on1` (stereo not shown) [Compound 26, 1-[(5-methylisoxazol-3-yl)carbamoyl]propyl 2-(1,3-benzodioxol-5-yl)acetate] was tested. Which pIC50 did it give?
Its pIC50 is 6.49.

How did the pIC50 turn out when `COc1ccc(CC(=O)OC(C(=O)Nc2cc(C)on2)C(C)C)cc1` (stereo not shown) [Compound 84, [2-methyl-1-[(5-methylisoxazol-3-yl)carbamoyl]propyl] 2-(4-methoxyphenyl)acetate] was run?
Its pIC50 is 5.20.

How did the pIC50 turn out when `CC[C@H](OC(=O)C(c1ccccc1)c1ccccc1)C(=O)Nc1cc(C)on1` [Compound 28] was run?
Its pIC50 is 6.47.

`O=C(COC(=O)C(NC(=O)c1ccccc1)c1ccccc1)Nc1ccc(F)cc1` (stereo not shown) [Compound 61, [2-(4-fluoroanilino)-2-oxo-ethyl] 2-benzamido-2-phenyl-acetate] was tested. Which pIC50 did it give?
The pIC50 was 5.82.

With `COc1ccc(NC(=O)C(OC(=O)CCC2CCCC2)c2ccccc2)cc1` (stereo not shown) [Compound 19, [2-(4-methoxyanilino)-2-oxo-1-phenyl-ethyl] 3-cyclopentylpropanoate] as the compound, how does the pIC50 read?
Its pIC50 is 6.64.

`Cc1cc(NC(=O)C(OC(=O)CCC2CCCC2)C(C)C)no1` (stereo not shown) [Compound 72, [2-methyl-1-[(5-methylisoxazol-3-yl)carbamoyl]propyl] 3-cyclopentylpropanoate] was tested. Which pIC50 did it give?
Its pIC50 is 5.56.

How did the pIC50 turn out when `CCC(OC(=O)Cc1ccc(OC)c(OC)c1)C(=O)Nc1cc(C)on1` (stereo not shown) [Compound 41, 1-[(5-methylisoxazol-3-yl)carbamoyl]propyl 2-(3,4-dimethoxyphenyl)acetate] was run?
The pIC50 was 6.24.

With `CCC(OC(=O)C(NC(=O)c1ccccc1)c1ccccc1)C(=O)Nc1ccc(OC)cc1` (stereo not shown) [Compound 64, 1-[(4-methoxyphenyl)carbamoyl]propyl 2-benzamido-2-phenyl-acetate] as the compound, how does the pIC50 read?
The pIC50 was 5.77.

`CCC(OC(=O)Cc1ccc(Cl)cc1)C(=O)Nc1cc(C)on1` (stereo not shown) [Compound 3, 1-[(5-methylisoxazol-3-yl)carbamoyl]propyl 2-(4-chlorophenyl)acetate] was tested. Which pIC50 did it give?
The pIC50 was 7.10.

With `O=C(CCC1CCCC1)OC(C(=O)NCc1ccccc1)c1ccccc1` (stereo not shown) [Compound 37, [2-(benzylamino)-2-oxo-1-phenyl-ethyl] 3-cyclopentylpropanoate] as the compound, how does the pIC50 read?
The pIC50 was 6.34.

`CC(OC(=O)Cc1ccc(Cl)cc1)C(=O)Nc1ccc(F)cc1` (stereo not shown) [Compound 2] was tested. Which pIC50 did it give?
The pIC50 was 7.15.

`COCCC(OC(=O)C(c1ccccc1)c1ccccc1)C(=O)Nc1cc(C)on1` (stereo not shown) [Compound 38] was tested. Which pIC50 did it give?
The pIC50 was 6.33.

How did the pIC50 turn out when `Cc1cc(NC(=O)COC(=O)CCC2CCCC2)no1` [Compound 69] was run?
The pIC50 was 5.57.

How did the pIC50 turn out when `Cc1cc(NC(=O)C(C)OC(=O)CCC2CCCC2)no1` (stereo not shown) [Compound 14, [1-methyl-2-[(5-methylisoxazol-3-yl)amino]-2-oxo-ethyl] 3-cyclopentylpropanoate] was run?
Its pIC50 is 6.74.

`Cc1cc(NC(=O)C(OC(=O)Cc2ccc(Cl)cc2)C(C)C)no1` (stereo not shown) [Compound 70, [2-methyl-1-[(5-methylisoxazol-3-yl)carbamoyl]propyl] 2-(4-chlorophenyl)acetate] was tested. Which pIC50 did it give?
Its pIC50 is 5.57.

`Cc1cc(NC(=O)COC(=O)CCC2CCCC2)no1` [Compound 58] was tested. Which pIC50 did it give?
Its pIC50 is 5.92.

How did the pIC50 turn out when `CCC(OC(=O)Cc1ccc(OC)cc1)C(=O)Nc1ccc(F)cc1` (stereo not shown) [Compound 30, 1-[(4-fluorophenyl)carbamoyl]propyl 2-(4-methoxyphenyl)acetate] was run?
Its pIC50 is 6.44.

With `CC(C)C(OC(=O)C(NC(=O)c1ccccc1)c1ccccc1)C(=O)Nc1ccccc1` (stereo not shown) [Compound 93, [2-methyl-1-(phenylcarbamoyl)propyl] 2-benzamido-2-phenyl-acetate] as the compound, how does the pIC50 read?
Its pIC50 is 5.64.

`Cc1cc(NC(=O)COC(=O)C(c2ccccc2)c2ccccc2)no1` [Compound 80] was tested. Which pIC50 did it give?
The pIC50 was 5.33.

`Cc1cc(NC(=O)C(C)OC(=O)C(c2ccccc2)c2ccccc2)no1` (stereo not shown) [Compound 47, [1-methyl-2-[(5-methylisoxazol-3-yl)amino]-2-oxo-ethyl] 2,2-diphenylacetate] was tested. Which pIC50 did it give?
Its pIC50 is 6.13.

`CC(C)C(OC(=O)C(NC(=O)c1ccccc1)c1ccccc1)C(=O)Nc1ccc(F)cc1` (stereo not shown) [Compound 96, [1-[(4-fluorophenyl)carbamoyl]-2-methyl-propyl] 2-benzamido-2-phenyl-acetate] was tested. Which pIC50 did it give?
The pIC50 was 5.43.

`Cc1cc(NC(=O)C(OC(=O)CCC2CCCC2)c2ccccc2)no1` (stereo not shown) [Compound 20, [2-[(5-methylisoxazol-3-yl)amino]-2-oxo-1-phenyl-ethyl] 3-cyclopentylpropanoate] was tested. Which pIC50 did it give?
Its pIC50 is 6.64.

`CC(OC(=O)C(NC(=O)c1ccccc1)c1ccccc1)C(=O)Nc1ccccc1` (stereo not shown) [Compound 66, (2-anilino-1-methyl-2-oxo-ethyl) 2-benzamido-2-phenyl-acetate] was tested. Which pIC50 did it give?
The pIC50 was 5.73.

With `CCC(OC(=O)C(NC(=O)c1ccccc1)c1ccccc1)C(=O)Nc1cc(C)on1` (stereo not shown) [Compound 85] as the compound, how does the pIC50 read?
The pIC50 was 5.19.

`CCC(OC(=O)C(CCSC)NC(=O)c1ccccc1)C(=O)Nc1cc(C)on1` (stereo not shown) [Compound 82] was tested. Which pIC50 did it give?
The pIC50 was 5.26.

How did the pIC50 turn out when `CCC(OC(=O)C(NC(=O)c1ccccc1)c1ccccc1)C(=O)Nc1ccc(F)cc1` (stereo not shown) [Compound 65, 1-[(4-fluorophenyl)carbamoyl]propyl 2-benzamido-2-phenyl-acetate] was run?
The pIC50 was 5.75.

How did the pIC50 turn out when `Cc1cc(NC(=O)C(OC(=O)C(c2ccccc2)c2ccccc2)c2ccccc2)no1` (stereo not shown) [Compound 54, [2-[(5-methylisoxazol-3-yl)amino]-2-oxo-1-phenyl-ethyl] 2,2-diphenylacetate] was run?
Its pIC50 is 5.96.

With `COc1ccc(NC(=O)COC(=O)Cc2ccc(Cl)cc2)cc1` [Compound 40] as the compound, how does the pIC50 read?
Its pIC50 is 6.26.

`CCCC(OC(=O)C(c1ccccc1)c1ccccc1)C(=O)Nc1cc(C)on1` (stereo not shown) [Compound 18] was tested. Which pIC50 did it give?
The pIC50 was 6.66.

`O=C(COC(=O)Cc1ccc(Cl)cc1)Nc1ccc(F)cc1` [Compound 50] was tested. Which pIC50 did it give?
Its pIC50 is 6.10.

How did the pIC50 turn out when `Cc1cc(NC(=O)C(OC(=O)C(c2ccccc2)c2ccccc2)C(C)C)no1` (stereo not shown) [Compound 79, [2-methyl-1-[(5-methylisoxazol-3-yl)carbamoyl]propyl] 2,2-diphenylacetate] was run?
The pIC50 was 5.34.

How did the pIC50 turn out when `Cc1cc(NC(=O)C(OC(=O)Cc2ccc(Cl)cc2)c2ccccc2)no1` (stereo not shown) [Compound 17, [2-[(5-methylisoxazol-3-yl)amino]-2-oxo-1-phenyl-ethyl] 2-(4-chlorophenyl)acetate] was run?
The pIC50 was 6.72.

How did the pIC50 turn out when `Cc1cc(NC(=O)COC(=O)C(NC(=O)c2ccccc2)c2ccccc2)no1` (stereo not shown) [Compound 60, [2-[(5-methylisoxazol-3-yl)amino]-2-oxo-ethyl] 2-benzamido-2-phenyl-acetate] was run?
The pIC50 was 5.83.

With `O=C(COC(=O)C(c1ccccc1)c1ccccc1)Nc1ccccc1` [Compound 90] as the compound, how does the pIC50 read?
The pIC50 was 4.95.

With `CCC(OC(=O)C(NC(=O)c1ccccc1)c1ccccc1)C(=O)Nc1cc(C)on1` (stereo not shown) [Compound 45] as the compound, how does the pIC50 read?
The pIC50 was 6.18.

How did the pIC50 turn out when `O=C(NC(C(=O)OC(C(=O)Nc1ccccc1)c1ccccc1)c1ccccc1)c1ccccc1` (stereo not shown) [Compound 76, (2-anilino-2-oxo-1-phenyl-ethyl) 2-benzamido-2-phenyl-acetate] was run?
Its pIC50 is 5.48.

`COc1ccc(CC(=O)OCC(=O)Nc2ccc(F)cc2)cc1` [Compound 67] was tested. Which pIC50 did it give?
The pIC50 was 5.64.

How did the pIC50 turn out when `Cc1cc(NC(=O)COC(=O)C(c2ccccc2)c2ccccc2)no1` [Compound 86] was run?
Its pIC50 is 5.18.

`O=C(COC(=O)C(NC(=O)c1ccccc1)c1ccccc1)Nc1ccccc1` (stereo not shown) [Compound 62, (2-anilino-2-oxo-ethyl) 2-benzamido-2-phenyl-acetate] was tested. Which pIC50 did it give?
The pIC50 was 5.81.

With `CCC(OC(=O)Cc1ccc(OC)cc1)C(=O)Nc1ccccc1` (stereo not shown) [Compound 34, 1-(phenylcarbamoyl)propyl 2-(4-methoxyphenyl)acetate] as the compound, how does the pIC50 read?
The pIC50 was 6.41.

With `CCC(OC(=O)Cc1ccc(Cl)cc1)C(=O)Nc1ccccc1` (stereo not shown) [Compound 9, 1-(phenylcarbamoyl)propyl 2-(4-chlorophenyl)acetate] as the compound, how does the pIC50 read?
The pIC50 was 6.82.

`COc1ccc(NC(=O)C(C)OC(=O)C(c2ccccc2)c2ccccc2)cc1` (stereo not shown) [Compound 57] was tested. Which pIC50 did it give?
The pIC50 was 5.93.

How did the pIC50 turn out when `COc1ccc(CC(=O)OC(C(=O)Nc2ccc(OC)cc2)c2ccccc2)cc1` (stereo not shown) [Compound 35, [2-(4-methoxyanilino)-2-oxo-1-phenyl-ethyl] 2-(4-methoxyphenyl)acetate] was run?
The pIC50 was 6.39.

With `COc1ccc(NC(=O)C(OC(=O)Cc2ccc(Cl)cc2)C(C)C)cc1` (stereo not shown) [Compound 92, [1-[(4-methoxyphenyl)carbamoyl]-2-methyl-propyl] 2-(4-chlorophenyl)acetate] as the compound, how does the pIC50 read?
Its pIC50 is 5.42.
